Data taken from publication PMC6838199 (Scientific Reports, 2019).

Legend:
Test in all cases: E1-E2 transthioesterification assay (UbcH5a, Coomassie gel), recombinant purified E1
Type in all cases: biochemical
TbUBA1a [1] = target: T1, TbUBA1a (Trypanosoma brucei, UniProt Q57XC5, E559D/Q534P/S560A)
T1 construct: gene Tb08.26A17.680; GST fusion cleaved with HRV 3C; with ubiquitin

TbUBA1b [2] = target: T2, TbUBA1b (Trypanosoma brucei, UniProt Q38DE8)
T2 construct: gene Tb09.211.3610; GST fusion cleaved with thrombin; with ubiquitin

TbUBA1b [3] = target: T3, TbUBA1b (Trypanosoma brucei, UniProt Q38DE8, E656D/T657A)
T3 construct: gene Tb09.211.3610; GST fusion cleaved with thrombin; with ubiquitin

TbUBA1b [4] = target: T4, TbUBA1b (Trypanosoma brucei, UniProt Q38DE8)
T4 construct: gene Tb09.211.3610; GST fusion cleaved with thrombin
T4 sequence (Q38DE8 1-1214): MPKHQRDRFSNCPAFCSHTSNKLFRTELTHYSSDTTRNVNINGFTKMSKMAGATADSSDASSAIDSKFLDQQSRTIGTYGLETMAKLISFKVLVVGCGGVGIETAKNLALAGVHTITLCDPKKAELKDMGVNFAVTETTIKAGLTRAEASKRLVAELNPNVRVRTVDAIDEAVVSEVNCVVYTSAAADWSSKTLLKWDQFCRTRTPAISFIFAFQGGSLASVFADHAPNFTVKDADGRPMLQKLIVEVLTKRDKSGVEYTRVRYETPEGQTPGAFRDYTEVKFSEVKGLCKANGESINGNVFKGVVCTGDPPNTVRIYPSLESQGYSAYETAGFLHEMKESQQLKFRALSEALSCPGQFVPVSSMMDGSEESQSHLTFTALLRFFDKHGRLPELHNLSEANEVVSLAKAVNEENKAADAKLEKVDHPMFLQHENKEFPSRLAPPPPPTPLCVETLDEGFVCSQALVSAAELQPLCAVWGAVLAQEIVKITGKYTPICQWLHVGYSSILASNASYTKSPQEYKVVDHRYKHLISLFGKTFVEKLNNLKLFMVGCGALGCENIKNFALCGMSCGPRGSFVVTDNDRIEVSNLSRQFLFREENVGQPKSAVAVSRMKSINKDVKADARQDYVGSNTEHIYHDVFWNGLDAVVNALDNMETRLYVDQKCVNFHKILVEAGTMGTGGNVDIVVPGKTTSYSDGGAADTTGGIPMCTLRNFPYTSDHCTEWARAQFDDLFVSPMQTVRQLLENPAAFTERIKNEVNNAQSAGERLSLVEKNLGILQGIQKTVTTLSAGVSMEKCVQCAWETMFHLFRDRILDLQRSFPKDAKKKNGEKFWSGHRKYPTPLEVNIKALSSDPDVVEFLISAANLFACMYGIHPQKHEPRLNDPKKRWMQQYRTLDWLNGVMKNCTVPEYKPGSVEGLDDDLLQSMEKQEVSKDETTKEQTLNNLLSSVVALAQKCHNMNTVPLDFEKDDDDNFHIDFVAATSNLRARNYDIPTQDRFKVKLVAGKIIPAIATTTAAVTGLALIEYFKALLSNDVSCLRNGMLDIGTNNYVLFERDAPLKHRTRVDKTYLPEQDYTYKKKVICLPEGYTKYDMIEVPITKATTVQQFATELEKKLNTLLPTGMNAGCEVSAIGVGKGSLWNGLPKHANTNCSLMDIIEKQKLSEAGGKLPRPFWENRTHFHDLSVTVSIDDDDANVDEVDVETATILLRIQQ

[5] = target: T5, human UBA1 (hUBA1), ubiquitin E1 activating enzyme (Homo sapiens, UniProt P22314)
T5 construct: N-terminal His-tagged hUBA1
T5 sequence (P22314 2-1058): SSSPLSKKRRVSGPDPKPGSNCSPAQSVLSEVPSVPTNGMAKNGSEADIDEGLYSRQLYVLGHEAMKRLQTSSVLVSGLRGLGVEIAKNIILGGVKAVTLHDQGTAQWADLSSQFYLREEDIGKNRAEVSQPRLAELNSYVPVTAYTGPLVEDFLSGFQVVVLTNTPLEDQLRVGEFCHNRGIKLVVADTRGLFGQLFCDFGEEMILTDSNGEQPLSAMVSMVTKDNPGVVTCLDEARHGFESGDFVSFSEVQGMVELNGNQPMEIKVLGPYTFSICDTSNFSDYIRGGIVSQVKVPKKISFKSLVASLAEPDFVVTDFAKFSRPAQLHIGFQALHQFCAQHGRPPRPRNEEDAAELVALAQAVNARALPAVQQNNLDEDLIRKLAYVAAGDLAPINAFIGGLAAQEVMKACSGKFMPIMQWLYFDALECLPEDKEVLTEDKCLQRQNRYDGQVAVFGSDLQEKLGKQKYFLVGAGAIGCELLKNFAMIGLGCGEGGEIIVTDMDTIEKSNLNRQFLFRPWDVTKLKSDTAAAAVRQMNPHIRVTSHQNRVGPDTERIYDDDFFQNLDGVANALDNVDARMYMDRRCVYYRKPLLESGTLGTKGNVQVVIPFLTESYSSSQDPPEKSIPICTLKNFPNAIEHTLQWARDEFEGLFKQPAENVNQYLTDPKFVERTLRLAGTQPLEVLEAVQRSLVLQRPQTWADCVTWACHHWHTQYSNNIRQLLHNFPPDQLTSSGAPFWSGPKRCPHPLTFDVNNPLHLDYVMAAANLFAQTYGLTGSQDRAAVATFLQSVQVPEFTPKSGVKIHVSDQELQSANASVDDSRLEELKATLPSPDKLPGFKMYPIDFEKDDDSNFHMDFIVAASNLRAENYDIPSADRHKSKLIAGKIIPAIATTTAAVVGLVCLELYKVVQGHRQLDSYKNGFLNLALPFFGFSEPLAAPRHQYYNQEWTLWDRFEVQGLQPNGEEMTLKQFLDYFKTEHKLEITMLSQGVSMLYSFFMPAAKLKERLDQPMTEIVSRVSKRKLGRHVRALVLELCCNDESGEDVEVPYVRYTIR

TbUBA1a [6] = target: T6, TbUBA1a (Trypanosoma brucei, UniProt Q57XC5)
T6 construct: gene Tb08.26A17.680; GST fusion cleaved with HRV 3C
T6 sequence (Q57XC5 1-1055): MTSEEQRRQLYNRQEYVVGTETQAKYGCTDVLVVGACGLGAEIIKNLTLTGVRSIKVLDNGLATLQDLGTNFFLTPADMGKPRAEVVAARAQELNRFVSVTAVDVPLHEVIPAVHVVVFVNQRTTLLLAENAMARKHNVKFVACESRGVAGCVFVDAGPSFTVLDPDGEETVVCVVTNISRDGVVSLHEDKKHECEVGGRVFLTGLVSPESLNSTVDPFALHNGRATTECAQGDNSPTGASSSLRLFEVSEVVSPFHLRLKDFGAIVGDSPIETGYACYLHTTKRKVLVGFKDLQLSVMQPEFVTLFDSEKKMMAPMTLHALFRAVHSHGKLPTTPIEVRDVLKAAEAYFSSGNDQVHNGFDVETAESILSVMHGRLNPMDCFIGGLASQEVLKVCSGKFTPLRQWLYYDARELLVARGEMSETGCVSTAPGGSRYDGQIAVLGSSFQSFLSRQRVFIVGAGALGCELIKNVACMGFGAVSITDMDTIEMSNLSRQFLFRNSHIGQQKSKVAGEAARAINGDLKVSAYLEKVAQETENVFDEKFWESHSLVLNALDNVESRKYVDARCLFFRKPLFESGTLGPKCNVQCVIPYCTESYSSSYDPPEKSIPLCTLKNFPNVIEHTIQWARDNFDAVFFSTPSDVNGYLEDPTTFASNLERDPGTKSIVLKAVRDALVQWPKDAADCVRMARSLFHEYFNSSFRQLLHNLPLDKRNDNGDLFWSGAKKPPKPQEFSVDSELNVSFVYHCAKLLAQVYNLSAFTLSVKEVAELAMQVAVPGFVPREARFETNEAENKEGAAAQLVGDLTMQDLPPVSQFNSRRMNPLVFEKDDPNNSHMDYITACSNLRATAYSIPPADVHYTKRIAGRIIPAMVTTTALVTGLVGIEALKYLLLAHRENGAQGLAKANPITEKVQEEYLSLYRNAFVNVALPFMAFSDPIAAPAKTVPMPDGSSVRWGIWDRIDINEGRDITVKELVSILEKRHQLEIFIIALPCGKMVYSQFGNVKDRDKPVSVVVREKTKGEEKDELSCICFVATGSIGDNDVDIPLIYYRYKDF

T1 sequence (Q57XC5 whole entry E559D/Q534P/S560A, the tested form may be a part): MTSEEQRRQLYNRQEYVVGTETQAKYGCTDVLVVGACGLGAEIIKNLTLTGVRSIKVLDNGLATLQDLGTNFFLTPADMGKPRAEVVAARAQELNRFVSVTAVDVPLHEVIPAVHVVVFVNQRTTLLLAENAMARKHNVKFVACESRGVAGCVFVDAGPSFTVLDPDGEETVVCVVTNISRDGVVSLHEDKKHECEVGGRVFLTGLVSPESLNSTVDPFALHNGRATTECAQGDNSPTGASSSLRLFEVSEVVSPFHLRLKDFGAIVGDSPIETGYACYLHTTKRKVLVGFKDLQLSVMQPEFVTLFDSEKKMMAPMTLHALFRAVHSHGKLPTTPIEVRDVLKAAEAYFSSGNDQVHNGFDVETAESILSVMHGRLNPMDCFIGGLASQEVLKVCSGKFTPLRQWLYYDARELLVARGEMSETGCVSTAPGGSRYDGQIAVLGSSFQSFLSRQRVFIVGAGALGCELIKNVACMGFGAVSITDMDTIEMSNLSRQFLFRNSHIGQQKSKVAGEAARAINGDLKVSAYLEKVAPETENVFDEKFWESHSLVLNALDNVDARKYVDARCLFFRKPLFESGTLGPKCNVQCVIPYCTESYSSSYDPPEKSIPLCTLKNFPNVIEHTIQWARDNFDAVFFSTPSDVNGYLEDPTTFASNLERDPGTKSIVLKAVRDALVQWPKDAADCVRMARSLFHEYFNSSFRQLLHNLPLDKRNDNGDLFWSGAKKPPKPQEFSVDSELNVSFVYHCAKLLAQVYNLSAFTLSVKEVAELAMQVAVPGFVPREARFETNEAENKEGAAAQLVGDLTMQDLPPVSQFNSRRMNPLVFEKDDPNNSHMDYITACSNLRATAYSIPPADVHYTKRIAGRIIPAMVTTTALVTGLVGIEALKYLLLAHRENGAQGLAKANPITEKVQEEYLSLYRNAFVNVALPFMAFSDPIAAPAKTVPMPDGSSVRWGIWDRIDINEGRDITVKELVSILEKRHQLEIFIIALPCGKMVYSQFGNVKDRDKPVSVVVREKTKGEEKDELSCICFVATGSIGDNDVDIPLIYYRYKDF

SMILES	IC50 (TbUBA1a [1]) [µM]	IC50 (TbUBA1b [2]) [µM]	E1-E2 transthioesterification assay (UbcH5a, Coomassie gel), recombinant purifie (TbUBA1b [3])	E1-E2 transthioesterification assay (UbcH5a, Coomassie gel), recombinant purifie (TbUBA1b [4])	E1-E2 transthioesterification assay (UbcH5a, Coomassie gel), recombinant purifie [5]	E1-E2 transthioesterification assay (UbcH5a, Coomassie gel), recombinant purifie (TbUBA1a [6])
NS(=O)(=O)OC[C@H]1C[C@@H](Nc2ccnc3cc(-c4cccc(SC(F)(F)F)c4)nn23)[C@H](O)[C@@H]1O [TAK-243]	12	159	The increase in inhibition of the double mutant E656D, T657A was almost as large as that of the triple mutant			
CCOC(=O)c1ccc(N2NC(=O)C(=Cc3ccc([N+](=O)[O-])o3)C2=O)cc1 [PYR-41]				the TbUBA1s were slightly (~two-fold) more sensitive to PYR-41 than hUBA1	we observed very little difference between inhibition of human and the T. brucei UBA1s (Fig. 3C)	the TbUBA1s were slightly (~two-fold) more sensitive to PYR-41 than hUBA1
